According to ChEMBL document CHEMBL5143744, “Discovery of Tenapanor: A First-in-Class Minimally Systemic Inhibitor of Intestinal Na+/H+ Exchanger Isoform 3” (ACS Med Chem Lett, 2022):
Active and inactive are the calls of the source. The rule behind the calls is not given here.

Experiments:
[1] = target: T1, Sodium/hydrogen exchanger 3 (Homo sapiens, UniProt P48764); experiment: Inhibition of human NHE3 expressed in opossum kidney cells assessed as reduction in Na-HEPES buffer-mediated pH recovery in presence of NEH1 inhibitor ethyl isopropyl amiloride by BCECF-AM dye based fluorescence assay; format: cell-based, Kidney epithelial cell
T1 sequence (P48764 whole entry): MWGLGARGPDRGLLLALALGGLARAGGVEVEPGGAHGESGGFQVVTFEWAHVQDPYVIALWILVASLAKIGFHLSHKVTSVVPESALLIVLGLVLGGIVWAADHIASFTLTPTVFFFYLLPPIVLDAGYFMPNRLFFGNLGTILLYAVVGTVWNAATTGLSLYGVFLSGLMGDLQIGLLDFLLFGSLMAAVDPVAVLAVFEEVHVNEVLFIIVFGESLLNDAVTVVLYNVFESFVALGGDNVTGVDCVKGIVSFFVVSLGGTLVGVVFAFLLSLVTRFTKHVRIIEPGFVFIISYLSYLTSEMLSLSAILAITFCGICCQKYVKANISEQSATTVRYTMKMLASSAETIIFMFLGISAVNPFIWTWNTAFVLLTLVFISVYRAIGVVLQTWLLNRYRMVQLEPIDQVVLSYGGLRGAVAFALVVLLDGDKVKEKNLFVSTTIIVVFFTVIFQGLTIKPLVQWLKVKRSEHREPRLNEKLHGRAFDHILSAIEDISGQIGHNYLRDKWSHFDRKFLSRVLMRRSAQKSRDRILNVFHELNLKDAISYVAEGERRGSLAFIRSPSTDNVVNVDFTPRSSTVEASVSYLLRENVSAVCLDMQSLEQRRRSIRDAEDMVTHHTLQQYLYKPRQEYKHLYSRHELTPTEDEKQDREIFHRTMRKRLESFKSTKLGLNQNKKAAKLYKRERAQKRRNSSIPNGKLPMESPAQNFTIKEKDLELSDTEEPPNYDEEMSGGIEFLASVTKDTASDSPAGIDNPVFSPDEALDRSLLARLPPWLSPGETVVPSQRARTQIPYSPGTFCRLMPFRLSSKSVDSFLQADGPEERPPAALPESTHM

Rattus norvegicus [2] = experiment: In vivo inhibition of NEH3 in Sprague-Dawley rat assessed as increase in colon water content at 10 mg/kg, po administered via gavage measured after 6 hrs; format: functional, organism-based
Rattus norvegicus [3] = experiment: In vivo inhibition of NEH3 in Sprague-Dawley rat assessed as increase in cecum water content at 10 mg/kg, po administered via gavage measured after 6 hrs; format: functional, organism-based
[4] = AUC in Sprague-Dawley rat at 1.5 mg/kg, po administered via gavage by LC-MS/MS analysis; conditions: in vivo
[5] = target: Sodium/hydrogen exchanger 3 (Rattus norvegicus, UniProt P26433); experiment: Inhibition of rat NHE3 expressed in opossum kidney cells assessed as reduction in Na-HEPES buffer-mediated pH recovery in presence of NEH1 inhibitor ethyl isopropyl amiloride by BCECF-AM dye based fluorescence assay; format: cell-based, Kidney epithelial cell
Sequence of Sodium/hydrogen exchanger 3 (Rattus norvegicus, UniProt P26433) (P26433 whole entry): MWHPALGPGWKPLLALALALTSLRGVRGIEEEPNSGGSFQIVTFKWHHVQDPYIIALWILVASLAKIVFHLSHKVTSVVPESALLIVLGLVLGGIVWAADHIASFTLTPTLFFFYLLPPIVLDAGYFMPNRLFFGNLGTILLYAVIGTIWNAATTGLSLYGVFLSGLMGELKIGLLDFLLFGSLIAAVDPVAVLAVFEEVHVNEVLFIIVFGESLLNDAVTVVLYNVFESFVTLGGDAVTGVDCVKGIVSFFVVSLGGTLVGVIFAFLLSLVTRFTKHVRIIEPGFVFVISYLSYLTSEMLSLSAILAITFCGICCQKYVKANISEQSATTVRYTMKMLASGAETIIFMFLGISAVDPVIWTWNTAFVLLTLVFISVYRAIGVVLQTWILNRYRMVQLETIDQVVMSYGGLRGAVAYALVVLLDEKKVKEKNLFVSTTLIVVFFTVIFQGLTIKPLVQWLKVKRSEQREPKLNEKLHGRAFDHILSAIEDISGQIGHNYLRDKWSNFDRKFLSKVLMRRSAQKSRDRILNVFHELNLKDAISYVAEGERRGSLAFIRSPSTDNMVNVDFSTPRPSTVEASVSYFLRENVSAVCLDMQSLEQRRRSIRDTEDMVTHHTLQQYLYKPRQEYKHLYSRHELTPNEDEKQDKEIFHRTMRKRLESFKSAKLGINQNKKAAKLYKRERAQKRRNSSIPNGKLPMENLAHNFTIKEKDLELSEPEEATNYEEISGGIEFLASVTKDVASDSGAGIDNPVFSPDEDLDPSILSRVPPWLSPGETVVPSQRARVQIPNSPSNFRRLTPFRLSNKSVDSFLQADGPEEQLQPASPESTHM

[6] = Cmax in Sprague-Dawley rat at 1.5 mg/kg, po administered via gavage by LC-MS/MS analysis; format: ADME, organism-based; design: dose 1.5 mg/kg, route po; conditions: in vivo
[7] = Drug recovery in Sprague-Dawley rat feces at 0.1 mg/kg, po administered via gavage measured after 72 hrs by LC-MS/MS analysis; format: ADME, organism-based; conditions: faeces, read-out: Drug recovery
[8] = Drug metabolism in Sprague-Dawley rat at 30 mg/kg, po administered via gavage by LC-MS/MS analysis; format: ADME, organism-based; conditions: in vivo
hERG (KCNH2) = hERG (KCNH2) (Homo sapiens, UniProt Q12809); experiment: Inhibition of human ERG at 10 uM relative to control; format: toxicity
Sequence of hERG (KCNH2) (Q12809 whole entry): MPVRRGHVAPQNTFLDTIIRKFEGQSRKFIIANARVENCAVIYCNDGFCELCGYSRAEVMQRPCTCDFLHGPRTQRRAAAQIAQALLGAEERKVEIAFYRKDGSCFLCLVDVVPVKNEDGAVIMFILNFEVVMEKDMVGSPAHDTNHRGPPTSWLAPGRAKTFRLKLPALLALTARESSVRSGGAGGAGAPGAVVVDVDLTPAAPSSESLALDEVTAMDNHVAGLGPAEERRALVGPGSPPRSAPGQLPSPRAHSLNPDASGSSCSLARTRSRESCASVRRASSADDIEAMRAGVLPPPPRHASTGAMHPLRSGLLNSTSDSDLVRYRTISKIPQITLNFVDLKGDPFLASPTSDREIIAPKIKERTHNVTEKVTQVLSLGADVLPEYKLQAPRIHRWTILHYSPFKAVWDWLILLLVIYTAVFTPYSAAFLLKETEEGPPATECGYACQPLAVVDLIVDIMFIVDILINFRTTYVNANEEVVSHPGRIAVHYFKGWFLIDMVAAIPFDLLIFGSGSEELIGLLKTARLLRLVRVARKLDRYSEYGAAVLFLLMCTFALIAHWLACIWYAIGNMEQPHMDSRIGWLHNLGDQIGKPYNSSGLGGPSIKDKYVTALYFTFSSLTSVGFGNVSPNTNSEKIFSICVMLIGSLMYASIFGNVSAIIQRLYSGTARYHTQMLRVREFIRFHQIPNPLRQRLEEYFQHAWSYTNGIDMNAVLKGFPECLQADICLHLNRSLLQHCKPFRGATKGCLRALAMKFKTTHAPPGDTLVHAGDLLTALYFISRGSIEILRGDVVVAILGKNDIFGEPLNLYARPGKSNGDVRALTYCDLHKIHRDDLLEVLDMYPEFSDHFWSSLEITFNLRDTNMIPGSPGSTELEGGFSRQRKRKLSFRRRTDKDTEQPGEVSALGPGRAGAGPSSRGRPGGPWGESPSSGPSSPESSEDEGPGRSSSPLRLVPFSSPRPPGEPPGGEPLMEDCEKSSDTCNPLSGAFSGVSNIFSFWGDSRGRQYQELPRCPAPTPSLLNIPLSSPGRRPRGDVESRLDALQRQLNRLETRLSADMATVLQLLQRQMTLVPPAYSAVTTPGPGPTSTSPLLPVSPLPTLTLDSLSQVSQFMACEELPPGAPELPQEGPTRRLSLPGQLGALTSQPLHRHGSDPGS

Rattus norvegicus [9] = experiment: In vivo inhibition of NEH3 in Sprague-Dawley rat assessed as reduction in sodium excretion in urine at 0.1 to 3 mg/kg, po administered via gavage measured after 16 hrs by ion chromatography; format: functional, organism-based; conditions: dose 0.1-3 mg/kg
[10] = Drug metabolism in Sprague-Dawley rat feces at 0.1 mg/kg, po administered via gavage measured after 72 hrs by LC-MS/MS analysis; format: ADME, organism-based; conditions: in vivo
[11] = In vivo inhibition of NEH3 in Sprague-Dawley rat assessed as increase in fecal water content at 0.1 to 3 mg/kg, po administered via gavage measured after 6 hrs; format: functional; design: scale not given: the % may be the effect or the level left; conditions: dose 0.1-3 mg/kg
[12] = Cmax in Sprague-Dawley rat at 30 mg/kg, po administered via gavage by LC-MS/MS analysis; format: ADME, organism-based; design: dose 30 mg/kg, route po; conditions: in vivo
[13] = In vivo inhibition of NEH3 in Sprague-Dawley rat assessed as sodium excretion in urine at 3 mg/kg, po administered via gavage measured after 16 hrs by ion chromatography relative to control; design: scale not given: the % may be the effect or the level left
[14] = In vivo inhibition of NEH3 in Sprague-Dawley rat assessed as fecal form score at 3 mg/kg, po administered via gavage measured after 6 hrs; format: functional
[15] = In vivo inhibition of NEH3 in Sprague-Dawley rat assessed as fecal water content at 3 mg/kg, po administered via gavage measured after 6 hrs; format: functional; design: scale not given: the % may be the effect or the level left
[16] = Drug metabolism in Sprague-Dawley rat feces at 3 mg/kg, po administered via gavage measured after 64 hrs by LC-MS/MS analysis; format: ADME, organism-based; conditions: in vivo
[17] = Drug recovery in Sprague-Dawley rat feces at 3 mg/kg, po administered via gavage measured after 64 hrs by LC-MS/MS analysis; format: ADME, organism-based; conditions: faeces, read-out: Drug recovery

SMILES: CN1Cc2c(Cl)cc(Cl)cc2[C@H](c2cccc(NC(=O)[C@H](O)[C@@H](O)[C@H](O)[C@H](O)CO)c2)C1
- IC50 [1]: 25.1 nM
- inhibition (Rattus norvegicus [2]): Active
- inhibition (Rattus norvegicus [3]): Active
- AUC [4]: 12 ng·h/mL
- IC50 [5]: 39.8 nM
- Cmax [6]: 6 ng/mL

SMILES: CN1Cc2c(Cl)cc(Cl)cc2[C@H](c2cccc(S(=O)(=O)NCCOCCOCCNC(=O)CCC(=O)NCCOCCOCCNS(=O)(=O)c3cccc([C@@H]4CN(C)Cc5c(Cl)cc(Cl)cc54)c3)c2)C1
- dose excreted at 72 h [7]: 46%
- Drug metabolism [8]: Metabolite_Notdetected
- inhibition at 10 µM (hERG (KCNH2)): < 50%
- inhibition (Rattus norvegicus [9]): Active
- Drug metabolism [10]: Metabolite_Notdetected
- Activity [11]: 10%
- Cmax ([12]; Sprague-Dawley, read-out: Cmax): < 2 ng/mL

SMILES: CN1Cc2c(Cl)cc(Cl)cc2C(c2cccc(S(=O)(=O)NCCOCCOCCNS(=O)(=O)c3cccc(C4CN(C)Cc5c(Cl)cc(Cl)cc54)c3)c2)C1 (racemic)
- IC50 [1]: 5010 nM

SMILES: CN1Cc2c(Cl)cc(Cl)cc2C(c2cccc(S(=O)(=O)NCCOCCOCCNC(=O)Nc3ccc(NC(=O)NCCOCCOCCNS(=O)(=O)c4cccc(C5CN(C)Cc6c(Cl)cc(Cl)cc65)c4)cc3)c2)C1 (racemic)
- Activity [13]: 32%
- Activity [14]: 3
- Activity [15]: 60%
- IC50 [5]: 7.94 nM

SMILES: CN1Cc2c(Cl)cc(Cl)cc2C(c2cccc(S(=O)(=O)NCCOCCOCCOCCNC(=O)NCCCCNC(=O)NCCOCCOCCOCCNS(=O)(=O)c3cccc(C4CN(C)Cc5c(Cl)cc(Cl)cc54)c3)c2)C1 (racemic)
- Activity [13]: 50%
- Activity [14]: 3
- Activity [15]: 57%

SMILES: CN1Cc2c(Cl)cc(Cl)cc2[C@H](c2cccc(S(=O)(=O)NCCOCCOCCNC(=O)Nc3ccc(NC(=O)NCCOCCOCCNS(=O)(=O)c4cccc([C@@H]5CN(C)Cc6c(Cl)cc(Cl)cc65)c4)cc3)c2)C1
- dose excreted at 72 h [7]: 93%
- Drug metabolism [8]: Metabolite_Notdetected
- IC50 [1]: 1.58 nM
- inhibition at 10 µM (hERG (KCNH2)): < 50%
- inhibition (Rattus norvegicus [9]): Active
- Drug metabolism [10]: Metabolite_Notdetected
- Activity [11]: 10%
- Cmax [12]: < 2 ng/mL

SMILES: CN1Cc2c(Cl)cc(Cl)cc2[C@@H](c2cccc(NC(=O)[C@H](O)[C@@H](O)[C@H](O)[C@H](O)CO)c2)C1
- IC50 [1]: 2510 nM
- IC50 [5]: 7940 nM

SMILES: CN1Cc2c(Cl)cc(Cl)cc2C(c2ccc(S(=O)(=O)NCCOCCOCCNC(=O)COCC(=O)NCCOCCOCCNS(=O)(=O)c3ccc(C4CN(C)Cc5c(Cl)cc(Cl)cc54)cc3)cc2)C1 (racemic)
- Activity [13]: 29%
- Activity [14]: 2.5
- Activity [15]: 59%

SMILES: CN1Cc2c(Cl)cc(Cl)cc2[C@H](c2cccc(S(=O)(=O)NCCOCCOCCOCCNC(=O)NCCCNC(=O)NCCOCCOCCOCCNS(=O)(=O)c3cccc([C@@H]4CN(C)Cc5c(Cl)cc(Cl)cc54)c3)c2)C1
- Drug metabolism [8]: Metabolite_Notdetected
- Drug metabolism [16]: Metabolite_Notdetected
- inhibition at 10 µM (hERG (KCNH2)): < 50%
- Cmax ([12]; Sprague-Dawley, read-out: Cmax): < 15 ng/mL
- dose excreted at 64 h [17]: 96%

SMILES: CN1Cc2c(Cl)cc(Cl)cc2C(c2ccc(S(=O)(=O)NCCOCCOCCNC(=O)NCCCCNC(=O)NCCOCCOCCNS(=O)(=O)c3ccc(C4CN(C)Cc5c(Cl)cc(Cl)cc54)cc3)cc2)C1 (racemic)
- Activity [13]: 14%
- Activity [14]: 3
- Activity [15]: 60%

SMILES: CN(CC(=O)NCCOCCOCCNS(=O)(=O)c1ccc(C2CN(C)Cc3c(Cl)cc(Cl)cc32)cc1)CC(=O)NCCOCCOCCNS(=O)(=O)c1ccc(C2CN(C)Cc3c(Cl)cc(Cl)cc32)cc1 (racemic)
- Activity [13]: 45%
- Activity [14]: 3
- Activity [15]: 57%
